# Results as given in patent EP0004516A2, “Pharmaceutical compositions active on the gastro-intestinal motricity” (SCIENCE UNION ET Cie SOCIETE FRANCAISE DE RECHERCHE MEDICALE, priority 1978, dated 1979).
# Assays:
# fibre lisse = experiment: Anti-serotonin action shown directly on smooth fibre
# [1] = test system: musculature lisse tube digestif; experiment: Pharmacological studies: antispasmodic action and restoration of digestive smooth muscle motility
# [2] = test system: ulcère produit par la contrainte; experiment: Restraint ulcer protection; type: in vivo, animal
# [3] = test system: troubles moteurs gastro-duodénaux (dyspepsie hyposthénique en rapport avec un état dépressif psychasthénique); experiment: Double-blind cross-over clinical and external digestive electromyographic study versus placebo (Exemple IV); type: in vivo, humaine
# Protocol: Effet normalisateur des compositions à base d'acide 7-[(3-chloro 6-methyl 5,5-dioxo 6,11-dihydrodibenzo (c,f) thiazepin 1,2-11-yl) amino] heptanoique sur les troubles moteurs gastro-duodénaux en clinique humaine.
# Evaluer l'efficacité du principe actif dans trois posologies différentes : • .
# Les malades ont été divisés en deux groupes de 12 sujets • . Un 1er groupe de 12 cas a reçu successivement et en cross- over 1 comprimé par jour de 12,5mg et de 25mg de PA. (Un malade de ce groupe a abandonné le traitement) • . Un 2ème groupe de 12 cas a reçu successivement et en cross- over 2 comprimés par jour, soit 2 x 12.
# Chaque sujet avait au minimum : • 1. Un syndrome dyspeptique hyposténique, avec • - ballonnements • - pesanteur • - somnolence post-prandiale • - brûlures et / ou douleurs épigastriques • - états nauséeux • 2. Ln état dépressif psycnasténique, avec • - dépression • - inhibition psycho-motrice • - asthénie • - anxiété psychique et / ou somatisée • - troubles du sommeil (difficulté à l'endormissement ou réveil précoce) • 3. Un électromyogramme digestif externe pathologique, avec un retard d'apparition des ondes gastriques après le repas (d'au moins 2 heures).
# • . Selon la gravité clinique, de 0 à 3 • . Pour l'électromyogramme digestif, chez un sujet normal, les ondes gastriques apparaissent dès l'ingestion d'un repas équilibré et persistent pendant 5 heures en moyenne. Cette situation était côtée 0.
# Chez le dyspeptique hyposténique, il existe une absence d'ondes gastriques dans la phase post-prandiale, qui peut durer plus de 3 heures. Cette situation était côtée 2.
# Si, après le traitement, la sidération diminuait, elle était côtée 1.
# L'examen clinique était répété après chaque passage du produit actif, ou de placebc, soit 5 fois par milade.
# En ce qui concerne les tracés EMG, nous avions prévu quatre enregistrements par sujet : avant traitement, après chaque passage de Principe Actif, et après le dernier passage Placebo.
# [4] = 1 x 25 mg/jour, 15 jours, Groupe I, 11 cas
# [5] = 1 x 12,5 mg/jour, 15 jours, Groupe I, 11 cas
# [6] = 2 x 25mg/jour, 15 jours, Groupe II, 12 cas
# [7] = 2 x 12,5mg/jour, 15 jours, Groupe II, 12 cas
smiles,measurement,setting,value
"CN1c2ccccc2C(NCCCCCCC(=O)O)c2ccc(Cl)cc2S1(=O)=O (racemic) [principe actif, acide 7-[(3-chloro 6-méthyl 5,5-dioxo 6,11-dihydrodibenzo (c,f)thiazepin 1,2-11-yl)amino] heptanoique]",action anti sérotonine,fibre lisse,très importante
same,action antispasmodique,[1],importante
same,restauration de la motricité (atonie de la musculature lisse),[1],capables de restaurer une motricité constante et bien coordonnée
same,effet anti-secrétoire,[2]; accompanying the protective effect,ne s'accompagne pas d'effet anti-secrétoire
same,protection contre l'ulcère produit par la contrainte,[2]; in vivo,protégeait l'animal contre l'ulcère produit par la contrainte
same,absence d'effet,[3]; [4],"18,2%"
same,très bon effet thérapeutique global,[3]; [4],"81,8%"
same,activité moyenne,[3]; [5],"54,6%"
same,"bonne activité (très nette amélioration de l'ensemble des symptômes digestifs, psychiques, ainsi que des tracés EMG externes)",[3]; [5],"45,4%"
same,activité bonne,[3]; [6],"83,3%"
same,activité moyenne,[3]; [6],"16,6%"
same,Bon effet thérapeutique global,[3]; [7],"66,6%"
same,effet moyen,[3]; [7],"33,3%"
same,activité globale par rapport au placebo,"[3]; 12,5mg, 25mg et 50mg, both groups",toujours été nettement supérieur au placebo
